Results reported in patent US20020018748A1, “Method for targeted radiotherapy, pain palliation and imaging of osteoblastic skeletal tumors and composition therefore” (priority 2000, published 2002).
Several values for one entry are separate records, joined by “and”; a condition that tells them apart may be missing. Identical values can stand only once.

Tests used:
[1] = test system: bone metastases from prostate cancer; assay: Fractional uptake of a tracer dose of ^85Sr chloride by bone metastases, measured with gamma camera / external counting; type: in vivo, patient
Experimental: To calculate the activity (mCi or MBq) of the dose of a carrier-free salt of ^89Sr, preferably chloride, to be administered to palliate painful metastases in a patient, 1 mCi (37 MBq) of ^85Sr chloride with standard specific activity [120 μCi (4.44 MBq)/mg of strontium) is injected into the patient and radioactivity in each metastasis is measured 24 hours after injection. The fractional uptake in each metastasis (relative osteoblastic activity) is calculated by expressing the radioactivity measured in each metastasis as a percent of the administered dose. The sum of the fractional uptake in all metastases is taken as the “metastatic burden” of the patient.
Measurements of radioactivity can be guided by a recent bone scan with ^99Tc^m-MDP (methylene diphosphonate). These measurements can be made by external point counting with a collimated scintillation detector, or by using a gamma camera. […]
The gamma camera needs to be equipped with a high-energy collimator. Anterior and posterior images of the lesions are recorded for 15 minutes. […]
The count rate in each metastasis is calculated by the square root of the product of the count rates in the anterior (A) and posterior (P) images divided by e^−μd: [(cps A) ×(cps P)/(e^−μd)]. The exponential term accounts for the attenuation of the gamma photons by the patient's tissues, where μ is the attenuation coefficient for the gamma rays of ^85Sr, previously measured in a water phantom, and d is the patent thickness measured in cm from x-ray images. The attenuation coefficient needs to be experimentally estimated only once; sensitivity should be measured using an ^85Sr source in a soft-tissue phantom before each imaging session because it varies with time. […]
The sum of the fractional uptake of ^85Sr chloride by all detectable metastases (“metastatic burden”), is used to define the activity (mCi or MBq) of ^89Sr chloride needed to palliate painful metastases in a patient. […] The fractional uptake measured in these metastases was 3%, 4%, 7%, 10%, and 17% of the dose respectively, with a total “metastatic burden” of 41% (3+4+7+10+17=41) (Table II). […]

[2] = intravenous single injection; reduced by slow administration over at least two minutes; cited from earlier work
bone marrow = details: repeat doses at 3-month intervals; cited from earlier work
metastases = details: in vivo; cited from earlier work
[3] = test system: metastatic lesions in bone; assay: Absorbed radiation dose estimates by direct measurements of radioactivity in bone metastases; type: in vivo; details: after 4 mCi (148 MBq), 120 μCi/mg of strontium
From the text: Absorbed radiation dose estimates for metastatic lesions in bone, obtained by direct measurements of radioactivity in bone metastases after the administration of 4 mCi (148 MBq) of ^89Sr chloride at standard specific activity (120 μCi [4.44 MBq]/mg of strontium), varied from 1.3 to 64 Gy, with a mean of 18±16 Gy. The average total absorbed dose in normal bone sites was 1.1±0.4 Gy. The metastases (target) to normal bone (non-target) dose ratio in individual samples varied from 8±4 to 40±25. If compared to absorbed radiation dose provided by external beam radiotherapy, the absorbed radiation dose delivered by ^89Sr chloride should be large enough to produce a therapeutic effect on the metastases. But absorbed radiation doses delivered by ^89Sr chloride may not be compared with those delivered by external beam radiotherapy because the different dose rates used in each methodology. External beam radiotherapy delivers very high dose rates in a very short time, while ^89Sr chloride provides very low dose rates during a long period. These differences reduce the biological effect of a given dose of ^89Sr because there is repair of sublethal damage.

bone metastases = assay: Theoretical (calculated) distribution of ^89Sr chloride doses in the metastases, from the ^85Sr chloride uptake; type: in vivo, patient; details: for total amount of strontium incorporated by all metastases: 4 mCi dose
Experimental: The fractional uptake (%) of a standard dose ^89Sr chloride for pain palliation in bone metastasis [4 mCi (148 MBq)] with specific activity of 120 μCi (4.44 MBq)/mg of strontium) (B) is calculated from the fractional uptake (%) of 1 mCi of ^85Sr chloride at the same specific activity (A) is illustrated in Table II.
The fractional uptake (%) of a standard dose of 4.0 mCi (148 MBq) of ^89Sr chloride at the standard specific activity is calculated for each metastasis from the results obtained with ^85Sr chloride. Since the specific activity is the same for both radionuclides, the fractional uptake would be similar if the same physiological conditions are maintained. However, the activity (μCi) and the amount of strontium (mg) incorporated by the metastases would be increased by four times because the activity of the administered dose is increased from 1 mCi to 4 mCi. Theoretically, the fractional uptake of a standard dose of ^89Sr chloride by the metastatic burden would be 41.0% of the dose (1.64 mCi or 60.7 MBq), leaving in blood a remaining fraction of 59% of the dose (2.36 mCi or 87.3 MBq) available for renal excretion and for incorporation by normal bone.
The absolute amount of strontium (mg) incorporated by each lesion can be calculated by multiplying the activity of the administered dose (mCi or MBq) by the fractional uptake by a given metastasis (% of the dose), and dividing the result by the specific activity of the dose (mCi or MBq/mg of strontium):
Strontium (mg)=Activity of the dose (mCi) × fractional uptake (%)/specific activity (mCi/mg Sr)
In Table II it is also appreciated that the fractional uptake is the same for both the activity (μCi) and the absolute amount (mg) of strontium incorporated by the metastases. One mg of strontium corresponds to 3% of the element in the dose. One hundred and twenty μCi of ^89Sr correspond to […] of the activity in the dose. One mCi of strontium chloride with specific activity of 120 μCi/mg of strontium contains 8.333 mg of strontium (Table I), therefore, 4 mCi would contain 33.333 mg of the element. A fractional uptake of 41.0% corresponds to 410 μCi and 3.416 mg when using 1 mCi, and to 1.64 mCi and 13.667 mg when the dose is increased to 4 mCi (Table II). The amount of strontium (mg) taken up by the metastasis per unit time should be constant if the physiological parameters are maintained. Dose calculation may be guided by the relationship of the amount of strontium in carrier-free ^89Sr chloride ([…]) and that which is in an equal amount of its low specific activity counterpart (120 μCi/mg of Sr). The amount of strontium in 4 mCi of low specific activity ^89Sr chloride (120 μCi/mg of Sr), is 33.333 mg, while in carrier-free ^89Sr chloride (17 Ci/mg of Sr) it is reduced to 235.2 ng. The relationship between these quantities would be:
Theoretical distribution of ^89Sr chloride at different specific activities assuming the same fractional uptake (% of the dose) by the metastases. (A) ^89Sr chloride with low specific activity [120 μCi (4.44 MBq)/mg of strontium]; (B) carrier-free ^89Sr chloride [17 Ci (629 GBq)/mg of strontium] is illustrated in Table III.
If the “metastatic burden” takes up 41% of a 4mCi dose of the low specific activity ^89Sr chloride (13.664 mg of strontium) (Tables II and III), it is evident that the very small amount of strontium in the carrier-free ^89Sr chloride dose (235.2 ng) would be totally incorporated by the metastases, resulting in a fractional uptake of 100% y the metastatic burden. To correct for this effect, the data in Table IlI should be multiplied by the ratio between 100% uptake and the fractional uptake by the metastatic burden by using 89Sr chloride at the lower specific activity. In this case, the ratio is 100%/41%=2.439. […]

painful bone metastases = details: cited from earlier work
[4] = standard dose 4 mCi (148 MBq), 120 μCi/mg of strontium, theoretical
[5] = standard dose 4 mCi, 120 μCi/mg of strontium, theoretical
[6] = carrier-free, 1.64 mCi dose, theoretical

SMILES: [85Sr+2].[Cl-].[Cl-] [^85Sr Chloride (120 μCi/mg Sr), ^85Sr chloride]
- Uptake (%) ([1]; 1 mCi dose, 120 μCi/mg Sr, 24 hours after injection, r8-r12 = metastasis 1-5, r13 = Total, one patient): 7.0% and 10.0% and 17.0% and 41.0% and 3.0% and 4.0%
- fractional uptake measured in these metastases ([1]; 1 mCi, 120 μCi/mg of strontium, five metastases of one patient with prostate cancer, values respectively): 3 % of the dose and 4 % of the dose and 7 % of the dose and 10 % of the dose and 17 % of the dose
- total "metastatic burden" (sum of fractional uptake in all metastases) ([1]; 1 mCi, 120 μCi/mg of strontium, one patient, five metastases): 41%

SMILES: [89Sr+2].[Cl-].[Cl-] [^89Sr Chloride (120 μCi/mg Sr), ^89Sr chloride]
- effect during the injection [2]: facial flushing during the injection
- toxicity of additional injections (bone marrow): no major toxicity
- ratio of the uptake by metastases as compared to the uptake in normal bones (metastases): higher than 10 to 1
- absorbed radiation dose for metastatic lesions in bone, mean [3]: 18±16 Gy
- average total absorbed dose in normal bone sites [3]: 1.1±0.4 Gy
- metastases (target) to normal bone (non-target) dose ratio in individual samples [3]: 8-40
- total amount of strontium incorporated by all metastases (bone metastases; 120 μCi/mg of strontium, theoretical): 13.664 mg
- total amount of strontium incorporated by all metastases (bone metastases; 120 μCi/mg of strontium, theoretical, listed as low specific activity ^89Sr chloride): 13.664 mg
- total amount of strontium incorporated by all metastases (bone metastases; 120 μCi/mg of strontium, theoretical, listed as low specific activity ^89Sr chloride (120 μCi/mg of Sr)): 13.667 mg
- mean fractional uptake (bone metastases; over the five metastases of Table II): 8.2%
- activity taken up by the metastatic burden (bone metastases; [4]): 1.64 mCi
- fractional uptake by the metastatic burden (bone metastases; [4]): 41 % of the dose
- fractional uptake by the metastatic burden (bone metastases; standard dose 4 mCi (148 MBq), 120 μCi/mg of strontium, theoretical, listed as low specific activity ^89Sr chloride): 41 % of the dose
- activity remaining in blood, available for renal excretion and incorporation by normal bone (bone metastases; [5]): 2.36 mCi
- fraction remaining in blood, available for renal excretion and incorporation by normal bone (bone metastases; [5]): 59 % of the dose
- duration of response, mean (painful bone metastases; after ^89Sr administration): 6 months
- overall effective pain palliation (painful bone metastases; survey in the United States in 1995, patients treated with bone-seeking radionuclides): 81%
- patients achieving a complete remission of pain (painful bone metastases; survey in the United States in 1995): 15%

SMILES: [89Sr+2].[Cl-].[Cl-] [^89Sr Chloride (17 Ci/mg Sr), ^89Sr chloride]
- fractional uptake by the metastases relative to the same activity at standard specific activity (bone metastases; 4 mCi (148 MBq) carrier-free vs 120 μCi/mg, ratio 100%/41%): 2.439 times
- activity incorporated by individual metastases (bone metastases; carrier-free, 1.64 mCi (60.68 MBq) dose, metastasis No. 4, No. 5, No. 1, No. 2, No. 3, respectively, listed as carrier-free ^89Sr chloride): 400 μCi and 680 μCi and 120 μCi and 160 μCi and 280 μCi
- ratio metastases to normal bone, theoretical values (bone metastases; carrier-free, 1.64 mCi dose, measured ratio multiplied by 2.439): 20-98
- absolute amount of strontium taken up by the metastases (bone metastases; [6]): 96.422 ng
- fractional uptake by the metastatic burden (bone metastases; [6]): 100%
- fractional uptake by the metastatic burden (bone metastases; carrier-free, 4 mCi dose (235.2 ng strontium), theoretical): 100%
- activity received by individual metastases (bone metastases; carrier-free, 4.1 mCi dose, metastasis 1-5 respectively, listed as carrier-free ^89Sr chloride): 300 μCi and 400 μCi and 700 μCi and 1,000 μCi and 1,700 μCi
- mean absorbed radiation dose to the metastases (bone metastases; carrier-free, 5.466 mCi (202.2 MBq) dose, calculated): 60 Gy
